Like-named read-outs stand apart in the source and are kept apart here.
Tests used:
[1] = target: HIV-1 IN recombinant protein (Human immunodeficiency virus type 1 group M subtype B, UniProt P12497); test: HIV-1 integrase 3′-processing gel-based assay; format: biochemical
[2] = tested on: HIV-1; test: Antiviral activity against HIV-1 in activated primary human PBM cells; format: cell-based; conditions: read-out: EC50 (μM), concentration required to induce 50% of inhibition
[3] = tested on: PBM cells; test: Cytotoxicity in normal PBM cells; format: cell-based, human
[4] = tested on: CEM cells; test: Cytotoxicity in CEM cells; format: cell-based
[5] = tested on: Vero cells; test: Cytotoxicity in Vero cells; format: cell-based

| Compound | IC50 [1] [µM] | EC50 [2] [µM] | CC50 ([3]; read-out: CC50 (μM) PBM, PBM cells, concentration reducing cell growth by 50%) [µM] | CC50 ([4]; read-out: CC50 (μM) CEM, CEM cells, concentration reducing cell growth by 50%) [µM] | CC50 ([5]; read-out: CC50 (μM) VERO, VERO cells, concentration reducing cell growth by 50%) [µM] | CC50 [3] [µM] | CC50 [4] [µM] | CC50 [5] [µM] |
| --- | --- | --- | --- | --- | --- | --- | --- | --- |
| CCOC(=O)c1c(-c2ccccc2)nc(=O)n(Cc2ccc(C(=O)/C=C(\O)C(=O)O)cc2)c1C [4a, 4-[4-[(5-ethoxycarbonyl-6-methyl-2-oxo-4-phenyl-pyrimidin-1-yl)methyl]phenyl]-2-hydroxy-4-oxo-but-2-enoic acid] | > 111 | – | – | – | – | – | – | – |
| Ethyl (Z)-6-ethyl-1-(4-(3-(3-hydroxy-4-isopropoxy-4-oxobut-2-enoyl)benzyl)benzyl)-2-oxo-4-phenyl-1,2-dihydropyrimidine-5-carboxylate [19′] | – | 36.8 | 47.6 | 8.9 | > 100 | – | – | – |
| Ethyl (Z)-1-(4-(3-hydroxy-4-isopropoxy-4-oxobut-2-enoyl)benzyl)-4-(4-methoxyphenyl)-2-oxo-6-phenyl-1,2-dihydropyrimidine-5-carboxylate [4′l] | – | 80.6 | – | – | – | > 100 | 25.3 | > 100 |
